Measurements as given in the METLIN SMRT retention time set (Domingo-Almenara et al. 2019).

Assay: gradient 5% acetonitrile 3 min, to 50% in 2 min, to 85% in 15 min, held 3 min, 100 µL/min
Settings: column: Zorbax Extend-C18 2.1 x 50 mm; eluents: water / acetonitrile, 0.1% formic acid
Summary of the method: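 The system's dead and dwell volumes were 40 μL and 900 μL, with a Zorbax Extend-C18 column (2.1 × 50 mm, 1.8 μm) run at 100 μL/min in water and acetonitrile containing 0.1% formic acid each. Pure standards were analyzed in mixtures of ~100 molecules by HPLC–quadrupole time-of-flight mass spectrometry in positive and negative ionization mode. Retention time was assigned from computationally picked, manually inspected adduct peaks.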

| RP-LC retention time [s] | SMILES |
| --- | --- |
| 1040 | Cn1cc(-c2nc(C(=O)Nc3ccccc3F)cs2)c2cccnc21 |
| 792 | Cn1ncn2cc(S(=O)(=O)NCc3ccccc3Cl)cc2c1=O |
| 1280 | CCCCn1nnc(NCc2ccc(-c3ccc(Cl)cc3Cl)o2)n1 |
| 749 | COCCNC(=O)N1c2ccccc2NC2=C(C(=O)CC(C)(C)C2)C1c1ccc(F)cc1 (stereo not given) |
| 667 | CCC(=O)Nc1ccc2c(c1)CN(C(=O)c1ccccc1)C(C(=O)N1CCCC1)C2 (stereo not given) |
| 762 | CCc1nc2nccc(-c3cccc(OC)c3)n2n1 |
| 702 | CCOC(=O)CCC(=O)Nc1ccc(-c2nnc(N(C)c3ccccc3)s2)cc1 |
| 820 | Clc1cccc(-c2cc3c(N4CCN(Cc5ccc6c(c5)OCO6)CC4)nccn3n2)c1 |
| 590 | Cn1nc(C(=O)N2CCCCC2)c2c1CCN(C(=O)CCC(=O)NCCN1CCCCCC1)C2 |
| 655 | CCOCCCNC(=O)C1CCCN(c2nnc(C)c3c(C)n(-c4ccccc4)nc23)C1 (stereo not given) |
| 628 | CCCCNC(=O)C(=O)NCC(c1ccc2c(c1)OCO2)N1CCOCC1 (stereo not given) |
| 854 | CN1C(=O)C(C)(C(=O)Nc2ccccc2Cl)Oc2cccnc21 (stereo not given) |
| 766 | COc1ccc(NC(=O)N2CCc3c(c(-c4nnc(-c5ccc(F)cc5)o4)nn3C)C2)cc1OC |
| 604 | CN(C)c1cc(OC2CCN(C(=O)c3c[nH]c4ccccc34)C2)ncn1 (stereo not given) |
| 784 | CCOc1ccccc1NC(=O)C1CCN(S(=O)(=O)c2cn(CC)cn2)CC1 |
| 882 | COc1ccc(-c2noc(CN3C(=O)COc4ccccc43)n2)cc1OC |
| 713 | Cc1ccc(S(=O)(=O)N2CCC(n3cnnc3C)CC2)c(C)c1 |
| 797 | Cc1cc(N2CCN(S(=O)(=O)c3cccc(F)c3)CC2)nc(NC2CCCCC2)n1 |
| 811 | CCn1cc(-c2nc(-c3ccc(OC)c(OC)c3)no2)c(=O)c2cc(F)ccc21 |
| 572 | O=C(Nc1cccc(Cl)c1)N1CCc2[nH]cnc2C1c1ccncc1 (stereo not given) |
| 644 | CCC(=O)N1CCC([C@H]2[C@@H](OC)C(=O)N2C(C)C)CC1 |
| 776 | COc1ccc(C2C(C(=O)NCc3ccco3)c3ccccc3C(=O)N2C)cc1 (stereo not given) |

| RP-LC retention time [s] | SMILES |
| --- | --- |
| 882 | CCCCNc1nc2c(c(=O)n(C)c(=O)n2C)n1CC(O)COc1ccccc1 (stereo not given) |
| 714 | CC(c1ccccc1)c1nc(-c2ccc3c(c2)nnn3CCN2CCOCC2)no1 (stereo not given) |
| 626 | Cc1cc(C)nc(Nc2nc(C(=O)O)cs2)n1 |
| 757 | CC(C)NC(=O)c1ccc(OCC2CCCN2C(=O)c2ccco2)cc1 (stereo not given) |
| 909 | O=C(CCc1nc(N2CCCCC2)c2c(-c3ccccc3)noc2n1)NC1CC1 |
| 890 | Cc1ccc(-n2nc(CO)c(C(=O)NC3CC3)n2)cc1C |
| 618 | CC(C)NC(=O)N1CCC2(CC1)NCCc1c2[nH]c2ccccc12 |
| 795 | COCCCNC(=O)Cn1nc(C)c2nn(-c3ccc(F)cc3)c(-n3cccc3)c2c1=O |
| 602 | CCN1CCN(CCNC(=O)c2cc3n(n2)CCCN(Cc2cccc(C)c2)C3=O)CC1 |
| 648 | O=C(Cn1ccnc1-c1ccnc(N2CCOCC2)c1)Nc1cccc(Br)c1 |
| 704 | CCN1CCCn2cc(S(=O)(=O)Nc3cc(OC)cc(OC)c3)cc2C1=O |
| 860 | O=C(NC1CCCCC1)C1c2ccccc2C(=O)N1Cc1ccc2c(c1)OCO2 (stereo not given) |
| 620 | CNC(=O)[C@@H]1CN(C(=O)CCc2cc(OC)no2)C[C@H]1c1nc(C)no1 |
| 770 | CC(C)NC(=O)N(C1CC1)C1CCOC2(CCN(C(=O)Cc3ccsc3)CC2)C1 (stereo not given) |
| 943 | O=C(N[C@H]1C[C@@H]2C[C@H]1CN2S(=O)(=O)c1ccc2c(c1)CCC2)c1cccs1 |
| 1140 | CCOc1ccc(CCNC(=O)c2sc(-c3cccn3CC)nc2C)cc1OCC |
| 777 | c1cc(-c2noc(-c3cccnc3)n2)cc(-c2ccn[nH]2)c1 |
| 684 | COc1ccc(-n2nnc(C(=O)N3CCOCC3)c2C)cc1Cl |
| 731 | CC(=O)N1CCC(C(=O)Nc2nc(C(C)(C)C)cs2)CC1 |
| 870 | COCCNS(=O)(=O)c1ccc(Cl)c(-c2nnc(-c3ccccc3)o2)c1 |
| 957 | Cc1nc(C)c(C(=O)N(Cc2ccccn2)c2nc3c(Cl)cccc3s2)s1 |
| 620 | CCOC(=O)C1CCCN(Cc2nc3nc(C)cc(N4CCCCCC4)n3n2)C1 (stereo not given) |

| RP-LC retention time [s] | SMILES |
| --- | --- |
| 739 | Cc1cccc(N(C)C(=O)Cc2c(C(=O)O)c(C)cn2C)c1 |
| 795 | Cc1ccc(CNC(=O)CCCN2C(=O)CCn3nc(-c4cccn4C)cc32)cc1 |
| 695 | Cc1nc(C)c(CCNS(=O)(=O)c2cc(C)c(C)cc2C)s1 |
| 888 | Cn1nc(C2CCN(S(=O)(=O)Cc3cccc(Cl)c3)CC2)n(C2CCCC2)c1=O |
| 841 | Cc1cccc(C2CCCN2C(=O)c2nc3nc(C)cc(C(F)F)n3n2)c1 (stereo not given) |
| 600 | Cc1ccc(-n2cc3c(N4CCCC(C(=O)NCc5ccc(N(C)C)cc5)C4)ncnc3n2)cc1 (stereo not given) |
| 1050 | Brc1ccc(OCc2nnc3sc(-c4ccccc4)nn23)cc1 |
| 746 | Cc1onc(-c2ccccc2Cl)c1C(=O)NC1CC1 |
| 661 | COc1ccc(C2(C(=O)N3CCC(n4c(C)cnc4-c4ccccc4)C3)CC2)cc1 (stereo not given) |
| 796 | CCOC(=O)N1CCC(NC(=O)C2(c3ccc(F)cc3)CC2)CC1 |
| 754 | CCC(C)NC(=O)c1ccc(Cn2nc(C)c(S(=O)(=O)N(C)C)c2C)cc1 (stereo not given) |
| 1180 | Cc1cc(NS(=O)(=O)c2c(C)sc(C)c2-c2n[nH]c(C)c2C)ccc1Br |
| 998 | O=C(NCc1ccc2c(c1)OCO2)C1CCCN(c2ncc(-c3ccc(F)cc3)cn2)C1 (stereo not given) |
| 781 | O=C(NCc1ccc(F)cc1F)c1ccc2c(c1)nc1n2CCN(c2ccccc2)C1=O |
| 728 | CCCN(C)C(=O)C1CCN(c2cnn(Cc3ccccc3)c(=O)c2)CC1 |
| 910 | COC(=O)c1ccc(NC(=O)C(=O)NCCc2ccc(N3CCCC3)cc2)cc1 |
| 836 | Cc1ccc(NC(=O)Cn2nc(N3CCOCC3)c3ccccc3c2=O)cc1F |
| 600 | CCCCOc1ccc(NC(=O)NCCN2CCN(S(C)(=O)=O)CC2)cc1 |
| 998 | CCn1cc(SCC(=O)Nc2c(C)cc(C)cc2C)c2ccccc21 |
| 703 | CCOc1ccc(-c2nc(CN3CCN(C(=O)NC4CCCC4)CC3)c(C)o2)cc1 |
| 780 | CCCn1c(=O)sc2cc(S(=O)(=O)N3CCC(C(=O)Nc4ccccn4)CC3)ccc21 |
| 880 | CCc1cccc(NC(=O)Cn2c(=O)c(CCC(=O)NCC(C)C)nc3ccccc32)c1 |

| RP-LC retention time [s] | SMILES |
| --- | --- |
| 946 | Cc1nc(C(=O)Nc2ccc(C)c(F)c2)c(C)o1 |
| 588 | Cc1cnc(CCNC(=O)NCC(C)C)n1C1CCCCCC1 |
| 710 | c1ccc2c(c1)cnc1ccccc12 |
| 688 | O=S(=O)(c1ccccc1)N1CC(c2nc(-c3ccncc3)no2)C1 |
| 1140 | O=C(c1ccc(Cl)s1)N1CCC(Oc2nc3c(F)cc(F)cc3s2)CC1 |
| 646 | Cc1cc(N2CCOCC2)nc(N2CCN(C(=O)c3ccc(C)c(C)c3)CC2)n1 |
| 665 | Cc1noc(C2CN(C(=O)c3n[nH]c4ccccc34)CC23CCOCC3)n1 (stereo not given) |
| 616 | CC(C)S(=O)(=O)c1ccc(Cc2nnc(NC(=O)C3=COCCO3)o2)cc1 |
| 596 | CCCS(=O)(=O)N1CCOc2ccc(CN3CCc4ccccc4C3)cc2C1 |
| 766 | Cn1nc(C(=O)N2C[C@@H]3C[C@H]2C[C@@H]3NC(=O)c2cccs2)c2ccccc21 |
| 1280 | Cc1ccc(NC(=O)Cc2c(C)nn(-c3nc(-c4ccc(Cl)cc4)cs3)c2C)c(C)c1 |
| 740 | O=C(Nc1cccc(Cl)c1)C1CCCN(C(=O)c2cc(-c3ccccn3)n[nH]2)C1 (stereo not given) |
| 740 | O=C(NCc1cscn1)C1CCN(S(=O)(=O)c2ccc(Br)s2)CC1 |
| 1200 | O=S(=O)(c1ccc(F)cc1F)N1CCc2nc(-c3ccc(Cl)cc3)ncc2C1 |
| 1010 | CCc1ccc(S(=O)(=O)N2CCC(c3nc(C(=O)N4CCCC4)c(C)o3)CC2)cc1 |
| 878 | O=C(NCCc1ccsc1)C(=O)Nc1ccccc1F |
| 936 | CC(O)(CCc1ccccc1)CNC(=O)C(=O)NCCC1=CCCCC1 (stereo not given) |
| 964 | CN1CCN(S(=O)(=O)c2ccc3nn(Cc4cccc(F)c4)c(=O)n3c2)CC1 |
| 829 | Cc1nc(Nc2ccccn2)sc1C(=O)N1CCc2ccccc2C1 |
| 799 | O=C(NCc1ccc(F)cc1)c1cn2cc(Cl)ccc2n1 |
| 682 | CCC(C)NC(=O)C1CCN(S(=O)(=O)c2ccc3c(c2)CCCC(=O)N3)CC1 (stereo not given) |
| 1050 | O=C(NCc1ccccc1F)C1CCCN(c2nccnc2Sc2ccccc2)C1 (stereo not given) |

| SMILES | RP-LC retention time [s] |
| --- | --- |
| Cc1ccc(-c2nnc(N3CCC(C(=O)N4CCC5(CC4)OCCO5)CC3)o2)cc1 | 755 |
| COc1ccc2[nH]c3c(c2c1)CCNC3 | 365 |
